Measurements from patent US7662789B2, “Peptide substance restoring myocardium function” (“Access Bioscience” CJSC, priority 2004, dated 2010).
Marks after values point to notes of the source that are not given here. Where a SMILES comes first, the peptide text is derived from it.

Assays:
[1] = test system: isolated rat heart; experiment: Contractive ability of isolated rat heart after ischemia; conditions: 10 min re-perfusion
Experimental: Another experiment was devoted to the study of the tetrapeptide's effect on the restoration of isolated rat heart's ability to contract after a period of ischemia. The study was conducted on 3 groups, 8 animals in each, in case of the additionally strained cardiac muscle working mode, under conditions of induced contraction rhythm and perfusion solution temperature increase up to 37° C.
The other series of experiments conducted on 12 rat hearts was aimed at the study of the tetrapeptide's protective effect in case of its addition into the perfusate in the concentration of […] before the induction of ischemia. Then “severe” stimulation was conducted (5 Hz frequency) in the heart and contractive activity was estimated. […] The administration of the tetrapeptide in a very small dose of 0.005 μg/ml preserved the heart, which was on the verge of stopping, from fibrillation and contractive activity decrease, restoring the value of the latter index.

[2] = test system: isolated rat heart; experiment: as above; conditions: 0.005 μg/ml; 12 rat hearts; severe stimulation 5 Hz
[3] = test system: isolated guinea pig heart; experiment: Isolated guinea pig heart, Langendorf perfusion, 30 min total ischemia and re-perfusion; parameters: species or system guinea pigs
Experimental: The experiment was conducted under conditions of perfusion in isolated hearts of 60 male guinea pigs, by Langendorf. The animals were randomly subdivided into several groups, each consisting of 6 animals. Total cardiac ischemia was induced by means of fully tightening the perfusional solution hose for 30 minutes. Then re-perfusion was performed under the same conditions as before ischemia (control group). In experimental animals perfusion was performed together with Ala-Glu-Asp-Arg (SEQ ID NO:1) tetrapeptide in the concentrations of 0.002-0.05 μg/ml. Mechanical contractions were registered, bioptates, weighing approximately 10 mg, were several times taken from the top of the heart, then the content of malon dialdegide (MDA) was identified in them. The hearts in the end of the experiment and partially before ischemia were frozen in liquid nitrogen for ATP, ADP and AMP content identification.

[4] = test system: rat myocardium, TMTD poisoning; experiment: Toxicochemical myocardiopathy by tetramethyl thiuram disulfide (TMTD) poisoning in rats; type: in vivo
Experimental: The experiment was conducted on 40 white mongrel rats with body weight of 220-230 g. The animals were randomly subdivided into four groups. The intoxication of animals with tetramethyl thiuram disulfide (TMTD) industrial poison was conducted in the form of 20-day course of 5% oil TMTD solution administration in the dose of 25 mg/kg intragastrically. The tetrapeptide was administered during the last 10 days of the experiment intramuscularly in the dose of 0.05 μg per animals in sterile 0.9% NaCl solution. Upon expiry of the indicated terms both the control and experimental animals were killed by momentary decapitation. Myocardium fragments were fixed by 12% formalin solution. Paraphin slices were stained by hematoxylin-eosine, as well as by Van Gison, Brachet, with sudan III, IV. Intact animals served as the control.

[5] = test system: succinate dehydrogenase; conditions: myocardium slices from different animals
[6] = test system: adrenalin dystrophy in rat myocardium; experiment: Adrenalin dystrophy in rat myocardium; type: in vivo, rats; conditions: for Diene conjugates content / Malon dialdegide content: 24 hours
Experimental: The experiment was conducted on 30 white mongrel rats with body weight of 180-200 g. The animals were randomly subdivided into three groups, each consisting of 10 animals. Adrenalin dystrophy was induced by administering the fresh adrenalin solution (“Serva”, USA) intraperitoneally in the dose of 2 mg/kg. The control animals received 0.9% NaCl solution. Then the experimental animals were in 1 and 5 hours treated with Ala-Glu-Asp-Arg (SEQ ID NO:1) tetrapeptide in the dose of 0.05 μg per animal in sterile 0.9% NaCl solution. In 4 hours since the beginning of the experiment cardiac muscle bioptates weighing approximately 10 mg were taken for the identification of cardiac dehydrogenases activity and glycogen content in the myocardium. In 24 hours the animals were killed by momentary decapitation. Left ventricle fragments were frozen in […]. In cryostatic slices the activity of succinatedehydrogenase (SDH) was histochemically identified, as well as of NADN-dehydrogenase (NADN-DH), lactatedehydrogenase and glycogen content.

[7] = 0.005 μg/ml, listed as tetrapeptide
[8] = 0.002 μg/ml, re-perfusion 15 min
[9] = 0.002 μg/ml, re-perfusion 30 min
[10] = 0.005 μg/ml, re-perfusion 15 min
[11] = 0.005 μg/ml, re-perfusion 30 min
[12] = 0.01 μg/ml, re-perfusion 15 min
[13] = 0.01 μg/ml, re-perfusion 30 min
[14] = 0.05 μg/ml, re-perfusion 15 min
[15] = 0.05 μg/ml, re-perfusion 30 min
[16] = TMTD 25 mg/kg 20 days + tetrapeptide 0.05 μg per animal i.m. last 10 days
[17] = intact animals, 0.05 μg per animal i.m. 10 days
[18] = adrenalin + 0.05 μg per animal, liver
[19] = adrenalin + tetrapeptide, 4 hours

C[C@H](N)C(=O)N[C@@H](CCC(=O)O)C(=O)N[C@@H](CC(=O)O)C(=O)N[C@@H](CCCNC(=N)N)C(=O)O [Tetrapeptide, L-alanyl-L-glutamyl-L-aspartyl-L-arginine] (H-AEDR-OH)
Amplitude of contractions, % of init. ([1]; 0.005 μg/ml): 75 ± 12 % of init. | Coronary duct ([1]; 0.005 μg/ml): 10.8 ± 1.6 mL/min | Extent of contracture ([1]; 0.005 μg/ml): 1.3 ± 0.4 mm | Max. speed of contraction, % of init. ([1]; 0.005 μg/ml): 56 ± 10 % of init. | Max. speed of relaxation, % of init. ([1]; 0.005 μg/ml): 69 ± 8 % of init. | Amplitude of contractions, % of init. [1, 7]: 75±12 % of init. | Coronary duct [1, 7]: 10.8 ± 1.6 mL/min | Amplitude of contractions, % of init. ([1]; 0.05 μg/ml): 36 ± 10 % of init. | Coronary duct ([1]; 0.05 μg/ml): 9.6 ± 0.7 mL/min | Extent of contracture ([1]; 0.05 μg/ml): 2.5 ± 0.3 mm | Max. speed of contraction, % of init. ([1]; 0.05 μg/ml): 28 ± 7 % of init. | Max. speed of relaxation, % of init. ([1]; 0.05 μg/ml): 28 ± 6 % of init. | Protective effect when added into the perfusate before induced ischemia [2]: restrained the growth of contracture during the period of ischemia | Amplitude of contractions, % of initial ([3]; 0.002 μg/ml, before ischemia): 100 % of initial | MDA ([3]; 0.002 μg/ml, before ischemia): 225 ± 23 nmole/g of tissue | Amplitude of contractions, % of initial [3, 8]: 70 ± 13 % of initial | MDA [3, 8]: 216 ± 5 nmole/g of tissue | Amplitude of contractions, % of initial [3, 9]: 81 ± 16 % of initial | MDA [3, 9]: 220 ± 12 nmole/g of tissue | Amplitude of contractions, % of initial ([3]; 0.005 μg/ml, before ischemia): 100 % of initial | MDA ([3]; 0.005 μg/ml, before ischemia): 168 ± 25 nmole/g of tissue | Amplitude of contractions, % of initial [3, 10]: 89 ± 6 % of initial | MDA [3, 10]: 231 ± 7 nmole/g of tissue | Amplitude of contractions, % of initial [3, 11]: 93 ± 5 % of initial | MDA [3, 11]: 186 ± 10 nmole/g of tissue | Amplitude of contractions, % of initial ([3]; 0.01 μg/ml, before ischemia): 100 % of initial | MDA ([3]; 0.01 μg/ml, before ischemia): 203 ± 18 nmole/g of tissue | Amplitude of contractions, % of initial [3, 12]: 61 ± 4 % of initial | MDA [3, 12]: 248 ± 8 nmole/g of tissue | Amplitude of contractions, % of initial [3, 13]: 64 ± 3 % of initial | MDA [3, 13]: 220 ± 9 nmole/g of tissue | Amplitude of contractions, % of initial ([3]; 0.05 μg/ml, before ischemia): 100 % of initial | Energy charge ([3]; 0.05 μg/ml, before ischemia): 7.78 ± 0.14 μmole of adenosine phosphates/g of tissue | MDA ([3]; 0.05 μg/ml, before ischemia): 156 ± 28 nmole/g of tissue | Amplitude of contractions, % of initial [3, 14]: 38 ± 13 % of initial | MDA [3, 14]: 264 ± 13 nmole/g of tissue | Amplitude of contractions, % of initial [3, 15]: 32 ± 9 % of initial | Energy charge [3, 15]: 2.98 ± 0.35 μmole of adenosine phosphates/g of tissue | MDA [3, 15]: 252 ± 11 nmole/g of tissue | Energy charge ([3]; 0.002-0.005 μg/ml, before ischemia): 7.68 ± 0.21 μmole of adenosine phosphates/g of tissue | Energy charge ([3]; 0.002-0.005 μg/ml, re-perfusion 30 min): 6.01 ± 0.23 μmole of adenosine phosphates/g of tissue | Influence on the status of the normal heart ([3]; perfusion without ischemia): does not influence the status of the normal heart | Cardiomyocyte nuclei volume [4, 16]: 365.4 ± 13.8** μm^3 | Nuclear-cytoplasmatic ratio [4, 16]: 0.28±0.03 | Parenchyma volume [4, 16]: 0.83 ± 0.02** cm^3/cm^3 | Stroma volume [4, 16]: 0.180±0.02 cm^3/cm^3 | Vessels volume, Vcap/Vcmc [4, 16]: 0.07 ± 0.02 Vcap/Vcmc | Increase of the filling of the myocardium ([4]; intact animals, versus control): 11% | Increase of the volume of cardiomyocytes' nuclei ([4]; intact animals, versus control): 14% | Cardiomyocyte nuclei volume [4, 17]: 386.2 ± 2.1* μm^3 | Nuclear-cytoplasmatic ratio [4, 17]: 0.40 ± 0.04 | Parenchyma volume [4, 17]: 0.82 ± 0.04 cm^3/cm^3 | Stroma volume [4, 17]: 0.159 ± 0.05 cm^3/cm^3 | Vessels volume, Vcap/Vcmc [4, 17]: 0.08 ± 0.006 Vcap/Vcmc | Activity of succinate dehydrogenase [5]: inhibiting effect | Quantity of diene conjugates in the myocardium ([6]; 24 hours after induction of dystrophy, control 176±24): 110 ± 17 nmol/g | Diene conjugates content ([6]; adrenalin 2 mg/kg i.p. + 0.05 μg per animal at 1 and 5 h, heart): 110 ± 17 nmole/g of tissue | Malon dialdegide content ([6]; adrenalin + 0.05 μg per animal, heart): 173 ± 25 nmole/g of tissue | Diene conjugates content [6, 18]: 92 ± 11 nmole/g of tissue | Malon dialdegide content [6, 18]: 270 ± 56 nmole/g of tissue | Enzyme activity in the myocardium tissue: LDH [6, 19]: 0.154 ± 0.011 rel. optical density unit | Enzyme activity in the myocardium tissue: NADN-DH [6, 19]: 0.344 + 0.019 rel. optical density unit | Enzyme activity in the myocardium tissue: SDH [6, 19]: 0.284 ± 0.013 rel. optical density unit | Glycogen content ([6]; adrenalin + tetrapeptide, myocardium, 4 hours): 0.168±0.021 rel. optical density unit
